From ChEMBL document CHEMBL2406981, “Novel pyrazoline amidoxime and their 1,2,4-oxadiazole analogues: synthesis and pharmacological screening” (Bioorg Med Chem Lett, 2013)
In brackets after ≈: the same amount, converted by molar mass.

Legend:
Assay type in all cases: functional
[1] = Antiinflammatory activity against heat-induced albumin denaturation at […] preincubated for 15 mins before heat induction by UV-vis spectrophotometer analysis
Aspergillus flavus [2] = assay: Antimicrobial activity against Aspergillus flavus MTCC 873
Aspergillus niger [3] = assay: Antimicrobial activity against Aspergillus niger MTCC 281
Shigella flexneri [4] = assay: Antimicrobial activity against Shigella flexneri MTCC 1457
Escherichia coli [5] = assay: Antimicrobial activity against Escherichia coli MTCC 724
Klebsiella pneumoniae [6] = assay: Antimicrobial activity against Klebsiella pneumoniae MTCC 3384
Staphylococcus aureus [7] = assay: Antimicrobial activity against Staphylococcus aureus MTCC 96
Bacillus cereus [8] = assay: Antimicrobial activity against Bacillus cereus MTCC 8372
Aspergillus niger [9] = assay: Antimicrobial activity against Aspergillus niger MTCC 281 at 50 ug/ml after 24 hrs by agar disc diffusion method; conditions: MTCC 281, 24 h, read-out: DIZ
Aspergillus niger [10] = assay: Antimicrobial activity against Aspergillus niger MTCC 281 at 100 ug/ml after 24 hrs by agar disc diffusion method; conditions: MTCC 281, 24 h, read-out: DIZ
Aspergillus flavus [11] = assay: Antimicrobial activity against Aspergillus flavus MTCC 873 at 100 ug/ml after 24 hrs by agar disc diffusion method; conditions: MTCC 873, 24 h, read-out: DIZ
Aspergillus flavus [12] = assay: Antimicrobial activity against Aspergillus flavus MTCC 873 at 50 ug/ml after 24 hrs by agar disc diffusion method; conditions: MTCC 873, 24 h, read-out: DIZ
Shigella flexneri [13] = assay: Antimicrobial activity against Shigella flexneri MTCC 1457 at 100 ug/ml after 24 hrs by agar disc diffusion method; conditions: MTCC 1457, 24 h, read-out: DIZ
Shigella flexneri [14] = assay: Antimicrobial activity against Shigella flexneri MTCC 1457 at 50 ug/ml after 24 hrs by agar disc diffusion method; conditions: MTCC 1457, 24 h, read-out: DIZ
Klebsiella pneumoniae [15] = assay: Antimicrobial activity against Klebsiella pneumoniae MTCC 3384 at 100 ug/ml after 24 hrs by agar disc diffusion method; conditions: MTCC 3384, 24 h, read-out: DIZ
Klebsiella pneumoniae [16] = assay: Antimicrobial activity against Klebsiella pneumoniae MTCC 3384 at 50 ug/ml after 24 hrs by agar disc diffusion method; conditions: MTCC 3384, 24 h, read-out: DIZ
Escherichia coli [17] = assay: Antimicrobial activity against Escherichia coli MTCC 724 at 100 ug/ml after 24 hrs by agar disc diffusion method; conditions: MTCC 724, 24 h, read-out: DIZ
Escherichia coli [18] = assay: Antimicrobial activity against Escherichia coli MTCC 724 at 50 ug/ml after 24 hrs by agar disc diffusion method; conditions: MTCC 724, 24 h, read-out: DIZ
Staphylococcus aureus [19] = assay: Antimicrobial activity against Staphylococcus aureus MTCC 96 at 100 ug/ml after 24 hrs by agar disc diffusion method; conditions: MTCC 96, 24 h, read-out: DIZ
Staphylococcus aureus [20] = assay: Antimicrobial activity against Staphylococcus aureus MTCC 96 at 50 ug/ml after 24 hrs by agar disc diffusion method; conditions: MTCC 96, 24 h, read-out: DIZ
Bacillus cereus [21] = assay: Antimicrobial activity against Bacillus cereus MTCC 8372 at 100 ug/ml after 24 hrs by agar disc diffusion method; conditions: MTCC 8372, 24 h, read-out: DIZ
Bacillus cereus [22] = assay: Antimicrobial activity against Bacillus cereus MTCC 8372 at 50 ug/ml after 24 hrs by agar disc diffusion method; conditions: MTCC 8372, 24 h, read-out: DIZ
[23] = Antioxidant activity against ferric chloride-induced lipid peroxidation using egg lecithin at 50 ug/ml after 1 hr
[24] = Antioxidant activity against ferric chloride-induced lipid peroxidation using egg lecithin at 100 ug/ml after 1 hr
[25] = Antioxidant activity against ferric chloride-induced lipid peroxidation using egg lecithin at 10 ug/ml after 1 hr
[26] = Antioxidant activity assessed as reducing power of ferric ion at 50 ug/ml after 20 mins; design: scale not given: the % may be the effect or the level left
[27] = Antioxidant activity assessed as reducing power of ferric ion at 100 ug/ml after 20 mins; design: scale not given: the % may be the effect or the level left
[28] = Antioxidant activity assessed as reducing power of ferric ion at 10 ug/ml after 20 mins; design: scale not given: the % may be the effect or the level left
[29] = tested on: Radical scavenging activity; assay: Antioxidant activity assessed as DPPH free radical scavenging activity at 50 ug/ml after 20 mins
[30] = tested on: Radical scavenging activity; assay: Antioxidant activity assessed as DPPH free radical scavenging activity at 100 ug/ml after 20 mins
[31] = tested on: Radical scavenging activity; assay: Antioxidant activity assessed as DPPH free radical scavenging activity at 10 ug/ml after 20 mins

SMILES	inhibition [1] [%]	MIC (Aspergillus flavus [2]) [mg/L]	MIC (Aspergillus niger [3]) [mg/L]	MIC (Shigella flexneri [4]) [mg/L]	MIC (Escherichia coli [5]) [mg/L]	MIC (Klebsiella pneumoniae [6]) [mg/L]	MIC (Staphylococcus aureus [7]) [mg/L]	MIC (Bacillus cereus [8]) [mg/L]	zone of inhibition at 50 µg/mL (Aspergillus niger [9]) [mm]	zone of inhibition at 100 µg/mL (Aspergillus niger [10]) [mm]	zone of inhibition at 100 µg/mL (Aspergillus flavus [11]) [mm]	zone of inhibition at 50 µg/mL (Aspergillus flavus [12]) [mm]	zone of inhibition at 100 µg/mL (Shigella flexneri [13]) [mm]	zone of inhibition at 50 µg/mL (Shigella flexneri [14]) [mm]	zone of inhibition at 100 µg/mL (Klebsiella pneumoniae [15]) [mm]	zone of inhibition at 50 µg/mL (Klebsiella pneumoniae [16]) [mm]	zone of inhibition at 100 µg/mL (Escherichia coli [17]) [mm]	zone of inhibition at 50 µg/mL (Escherichia coli [18]) [mm]	zone of inhibition at 100 µg/mL (Staphylococcus aureus [19]) [mm]	zone of inhibition at 50 µg/mL (Staphylococcus aureus [20]) [mm]	other results
Oc1ccc(C2=NN(c3ccccc3)C(c3noc(-c4ccc(Cl)cc4)n3)C2)cc1 (centres undefined)	74.6	15 (≈ 36 µM)	10 (≈ 24 µM)	20 (≈ 48 µM)	20 (≈ 48 µM)	15 (≈ 36 µM)	25 (≈ 60 µM)	20 (≈ 48 µM)	12	18	18	10	18	8	12	10	14	8	10	6	zone of inhibition at 100 µg/mL (Bacillus cereus [21]): 10 mm; zone of inhibition at 50 µg/mL (Bacillus cereus [22]): 8 mm; inhibition [23]: 61%; inhibition [24]: 80%; inhibition [25]: 40%; Activity [26]: 26%; Activity [27]: 76%; Activity [28]: 14%; Activity [29]: 51%; Activity [30]: 70%; Activity [31]: 30%
COc1ccc(C2=NN(c3ccccc3)C(c3noc(-c4ccccc4)n3)C2)cc1 (centres undefined)	23.3	25 (≈ 63.1 µM)	10 (≈ 25.2 µM)	25 (≈ 63.1 µM)	25 (≈ 63.1 µM)	25 (≈ 63.1 µM)	55 (≈ 139 µM)	45 (≈ 114 µM)	10	18	10	7	8	7	8	6	8	6	12	2	zone of inhibition at 100 µg/mL (Bacillus cereus [21]): 12 mm; zone of inhibition at 50 µg/mL (Bacillus cereus [22]): 3 mm; inhibition [23]: 40%; inhibition [24]: 62%; inhibition [25]: 26%; Activity [26]: 20%; Activity [27]: 64%; Activity [28]: 11%; Activity [29]: 36%; Activity [30]: 51%; Activity [31]: 19%
COc1ccc(C2=NN(c3ccccc3)C(c3noc(-c4ccccc4OC)n3)C2)cc1 (centres undefined)	27.1	15 (≈ 35.2 µM)	10 (≈ 23.4 µM)	25 (≈ 58.6 µM)	25 (≈ 58.6 µM)	25 (≈ 58.6 µM)	35 (≈ 82.1 µM)	35 (≈ 82.1 µM)	12	22	12	10	10	6	8	7	8	6	8	4	zone of inhibition at 100 µg/mL (Bacillus cereus [21]): 8 mm; zone of inhibition at 50 µg/mL (Bacillus cereus [22]): 4 mm; inhibition [23]: 33%; inhibition [24]: 57%; inhibition [25]: 21%; Activity [26]: 24%; Activity [27]: 65%; Activity [28]: 11%; Activity [29]: 41%; Activity [30]: 53%; Activity [31]: 20%
COc1ccc(C2=NN(c3ccccc3)C(c3noc(-c4ccc(Cl)cc4)n3)C2)cc1 (centres undefined)	57.5	10 (≈ 23.2 µM)	10 (≈ 23.2 µM)	25 (≈ 58 µM)	25 (≈ 58 µM)	25 (≈ 58 µM)	30 (≈ 69.6 µM)	40 (≈ 92.8 µM)	12	20	18	12	8	8	10	7	10	8	12	5	zone of inhibition at 100 µg/mL (Bacillus cereus [21]): 13 mm; zone of inhibition at 50 µg/mL (Bacillus cereus [22]): 4 mm; inhibition [23]: 48%; inhibition [24]: 70%; inhibition [25]: 34%; Activity [26]: 23%; Activity [27]: 58%; Activity [28]: 12%; Activity [29]: 52%; Activity [30]: 72%; Activity [31]: 22%
COc1cc(-c2nc(C3CC(c4ccc(O)cc4)=NN3c3ccccc3)no2)cc(OC)c1OC (centres undefined)	59.3	10 (≈ 21.2 µM)	5 (≈ 10.6 µM)	10 (≈ 21.2 µM)	15 (≈ 31.7 µM)	10 (≈ 21.2 µM)	15 (≈ 31.7 µM)	10 (≈ 21.2 µM)	18	30	26	14	22	14	18	12	16	10	18	10	zone of inhibition at 100 µg/mL (Bacillus cereus [21]): 18 mm; zone of inhibition at 50 µg/mL (Bacillus cereus [22]): 12 mm; inhibition [23]: 62%; inhibition [24]: 87%; inhibition [25]: 42%; Activity [26]: 26%; Activity [27]: 76%; Activity [28]: 16%; Activity [29]: 63%; Activity [30]: 91%; Activity [31]: 34%
c1ccc(-c2cc(-c3noc(-c4ccccc4)n3)n(-c3ccccc3)n2)cc1	37	15 (≈ 41.2 µM)	20 (≈ 54.9 µM)	55 (≈ 151 µM)	40 (≈ 110 µM)	50 (≈ 137 µM)	55 (≈ 151 µM)	35 (≈ 96 µM)	9	18	10	10	9	3	6	3	6	4	6	3	zone of inhibition at 100 µg/mL (Bacillus cereus [21]): 8 mm; zone of inhibition at 50 µg/mL (Bacillus cereus [22]): 5 mm; inhibition [23]: 40%; inhibition [24]: 67%; inhibition [25]: 26%; Activity [26]: 14%; Activity [27]: 65%; Activity [28]: 10%; Activity [29]: 28%; Activity [30]: 39%; Activity [31]: 18%
OC(Cn1cncn1)(Cn1cncn1)c1ccc(F)cc1F [FLUCONAZOLE]	–	5 (≈ 16.3 µM)	5 (≈ 16.3 µM)	–	–	–	–	–	20	30	28	16	–	–	–	–	–	–	–	–	–
O=C(N[C@H](CO)[C@H](O)c1ccc([N+](=O)[O-])cc1)C(Cl)Cl [CHLORAMPHENICOL]	–	–	–	10 (≈ 30.9 µM)	10 (≈ 30.9 µM)	10 (≈ 30.9 µM)	10 (≈ 30.9 µM)	10 (≈ 30.9 µM)	–	–	–	–	24	10	20	12	18	10	16	9	zone of inhibition at 100 µg/mL (Bacillus cereus [21]): 18 mm; zone of inhibition at 50 µg/mL (Bacillus cereus [22]): 10 mm
O=C(O)Cc1ccccc1Nc1c(Cl)cccc1Cl	84.4	–	–	–	–	–	–	–	–	–	–	–	–	–	–	–	–	–	–	–	–
O=C1O[C@H]([C@@H](O)CO)C(O)=C1O	–	–	–	–	–	–	–	–	–	–	–	–	–	–	–	–	–	–	–	–	Activity [26]: 32%; Activity [27]: 82%; Activity [28]: 14%; Activity [29]: 57%; Activity [30]: 94%; Activity [31]: 32%
